According to PMC6041393, “A Mechanistic Model for Predicting Cell Surface Presentation of Competing Peptides by MHC Class I Molecules” (Frontiers in Immunology, 2018):
Read-outs that look alike come from different tables or passages of the source.

Experiments:
[1] = biological target: T1, H-2Db (Mus musculus, UniProt P01899); assay: Brefeldin A (BFA) decay assay of pMHC complexes at the cell surface; assay type: cell-based; parameters: endogenous in cells; host or cells: RMA-S (TAP2-deficient mouse T cell line); details: for t1/2 (peptide half-life of pMHC complex): BFA decay assay, RMA-S cells kept overnight at 26°C, pulsed with 20 μM peptide 1 h at 26°C, BFA added, decay at 37°C, B22 anti-H-2Db staining, flow cytometry, exponential fit; for Off-rates: converted from BFA decay half-life as log(2)/half-life (s)
T1 sequence (P01899 25-362): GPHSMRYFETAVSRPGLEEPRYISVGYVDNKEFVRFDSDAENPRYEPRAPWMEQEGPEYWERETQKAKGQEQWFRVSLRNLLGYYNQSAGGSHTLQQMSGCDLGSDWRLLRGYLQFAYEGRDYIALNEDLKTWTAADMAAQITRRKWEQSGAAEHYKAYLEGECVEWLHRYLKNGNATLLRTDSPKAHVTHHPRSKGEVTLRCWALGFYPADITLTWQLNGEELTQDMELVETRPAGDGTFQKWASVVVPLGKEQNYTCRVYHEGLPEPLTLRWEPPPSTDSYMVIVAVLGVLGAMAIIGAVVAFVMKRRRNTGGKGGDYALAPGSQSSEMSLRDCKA
T1 sequence (P01887 21-119 partner): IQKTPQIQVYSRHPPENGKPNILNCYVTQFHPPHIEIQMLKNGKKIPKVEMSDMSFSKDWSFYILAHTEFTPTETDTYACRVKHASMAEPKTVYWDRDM
Description: Dissociation of pMHC complexes at the cell surface was assessed by BFA decay assay as described previously ([17]). RMA-S cells were incubated overnight at 26°C to maximize MHC-I surface expression. After being washed, 5 × 10^5 cells per well of a 96-U-bottom plate were pulsed, at different time intervals, with peptides (final concentration of 20 μM) for 1 h at 26°C. After washing with medium, de novo transport of MHC-I to the cell surface was blocked by the addition of BFA, and peptide-loaded RMA-S cells were incubated at 37°C to allow decay of unstable molecules. Cells were washed in FACS buffer and stained with B22 primary monoclonal Abs (conformation sensitive anti-H-2Db MAb) and goat anti-mouse IgG-PE secondary Abs (Abcam, Cambridge, UK) to detect peptide-loaded MHC-I molecules. Samples were analyzed by flow cytometry on a Fortessa X20 flow cytometer (BD, Oxford, UK), and data were analyzed with the Diva software. MFI values were background deducted by subtracting the MFI value obtained in the DMSO control at the last time point. Half-lives and off-rate constants were then determined by fitting the curves using an exponential trend line in the Excel software (Microsoft, USA).
We experimentally measured the stability of pMHC complexes by following their decay from the cell surface over time (“BFA decay assay” in Figure 2A), and used these measurements to calculate the corresponding unbinding rates of the peptides from MHC (Table 1; Figure S3 in Supplementary Material). Finally, to incorporate the effect of IFNγ into the model, we specified a new parameter (γ) that quantifies the increased supply of MHC and tapasin following IFNγ treatment.

[2] = tested on: E10 Fab; assay: E10 Fab surface staining of peptide-pulsed RMA-S cells (flow cytometry); assay type: binding; details: flow cytometry surface staining of RMA-S cells pulsed with peptides
[3] = biological target: T1, H-2Db; assay: pMHC competition assay in co-transfected B6 fibroblasts; surface pMHC quantified with Qifikit beads, cytoplasmic peptide with mCherry beads; assay type: cell-based; details: for surface expression of ASN variant–H2Db: IFNγ-treated fibroblasts, E10 Fab staining; for change of surface expression of peptide–H2Db complexes with IFNγ: fibroblasts treated with IFNγ for 48 h versus untreated; for number of pMHC complexes presented on the cell surface: untreated fibroblasts, 1C3 Mab, Qifikit calibration beads
Description: Fibroblasts were seeded at 2 × 10^5 cells per 6 cm diameter Petri dish. When IFNγ treatment was applied, 1 µg of mouse IFNγ (Peprotech, Rocky Hill, USA) was added per Petri dish 4 h after seeding. Cells were transfected the following day with TransIT-LT1 (Mirus, Madison, USA) following the manufacturer’s recommendations using 2.5 µg of each Venus-Ub-peptide and mCherry-Ub-peptide constructs. 1 day after transfection cells were stained for 45 min on ice with primary reagents, 1C3 hybrid Mab neat supernatant, E10 purified Fab, B22, or Y3 purified Mabs to detect surface pMHC complexes. After washing, cells were incubated for 45 min with AF647-conjugated goat anti-human IgG (used after Fab primary) or goat anti-mouse (after mouse antibodies including 1C3) (Invitrogen/Molecular Probes, Eugene, USA). Flow cytometry was performed using a Fortessa X20 cytometer (BD) and the data were analyzed using FACS Diva software (BD).
mCherry flow cytometry calibration beads (Clontech/Takara, USA) were used, as recommended by the manufacturer, to calibrate the amount of mCherry molecules, equivalent to the number of peptide molecules expressed in the transfected cells. Beads were run through the flow cytometer using the same setup as for acquiring cells.
The number of […]-H2Db complexes presented on the cell surface was estimated using Qifikit beads (Dako, Glostrup, Denmark). Beads were treated as recommended by the manufacturer but stained with AF647-conjugated goat anti-mouse IgG (Invitrogen) at the same dilution as used to detect the 1C3 Mab on transfected cells. A calibration curve was drawn by plotting the MFI of the 5 peaks (x-axis) versus the lot-specific numbers of antibody molecules per bead (y-axis). The curve was then used to calculate the number of […]-H2Db complexes presented on the cell surface expressed in antibody-binding capacity units (number of primary mouse monoclonal antibodies per cell).
To establish how variation in the intracellular abundance of competing peptides influences cell surface presentation, we developed an assay in which intracellular peptide supply and pMHC cell surface abundance could be measured simultaneously (Figure 1A), assay adapted from Ref. ([35]). Furthermore, this method measures the abundance of peptides actually presented at the surface of living cells and not, as for quantitative high-throughput methods, the abundance of peptides remaining bound to MHC after biochemical purification of pMHC I complexes from cell lysates. Two fluorescent fusion proteins, Venus-ubiquitin-[…] (faster off-rate, see Table 1) and mCherry-ubiquitin-[…] (slower off-rate) are co-expressed in fibroblasts. Once expressed in the cytoplasm, the fusion proteins are cleaved by endogenous cytoplasmic ubiquitin hydrolases, releasing the peptides at an equimolecular ratio to their respective fluorescent reporter protein (Figure 1A) that can be quantified by flow cytometry ([36]) (Figure S1 in Supplementary Material). Using this system, the generation of peptides bypasses the proteasome. After translocation into the ER, peptides compete for loading onto MHC-I molecules and are transported to the cell surface where they can be quantified by flow cytometry (Figure 1A). Both fusion proteins were naturally expressed at a broad range of concentrations after transient transfection, allowing in a single experiment to compare peptide surface presentation in cells expressing low to high levels of both fusion proteins (Figure 1B). To analyze competition between both peptides, cells were partitioned into different gates according to their expression level of mCherry, reporter for the level of expression of […], and Venus, reporter for the level of […] (Figure 1B). Competition was then assessed by plotting surface expression of […]-H2Db as a function of increasing cytoplasmic expression of the […] target peptide for increasing levels of competing peptide (Venus levels 1–7 in Figure 1B). […]

[4] = tested on: B44:02; parameters: method as in PMID 26375851; details: B lymphoblastoid cell lines; cited from earlier work
[5] = tested on: NIT-1 insulinoma cells; details: cited from earlier work; for enhancement of presentation by IFNγ: NIT-1 cells
From the text: IFNγ is well known to stimulate the immune system, increasing expression of MHC-I heavy chain, β2-microglobulin, subunits of the immunoproteasome (MECL1, LMP2, and LMP7), TAP, tapasin, the ER aminopeptidase associated with antigen processing (ERAAP) ([41]) and the tapasin-related protein (TAPBPR); it is produced as part of the immune response against viruses. ...

[6] = biological target: H-2Dd (Mus musculus, UniProt P01900); details: H-2Dd binding CT26 epitope; cited from earlier work
[7] = NIT-1 cells after IFNγ treatment
[8] = mCherry-SSLENFRAYV at around 10^4 MFI units

| Sequence | t1/2 (peptide half-life of pMHC complex) [1] [min] | Off-rates [1] [s⁻¹] | E10 score (E10 Fab binding to peptide–H2Db complexes) [2] [MFI/1000] | also measured |
| --- | --- | --- | --- | --- |
| ASIENMETM | 456 | 2.5e-05 | 8.9 |  |
| ASIENLETM | 502 | 2.3e-05 | 1.8 |  |
| ASNEAMETM | 43 | 0.00027 | 8.2 | surface expression of ASN variant–H2Db [3]: unable to reach or remain at the cell surface at detectable levels |
| ASNENMETV | 132 | 8.8e-05 | 16.8 | surface expression of ASN variant–H2Db [3]: unable to reach or remain at the cell surface at detectable levels |
| ASNENMETL | 191 | 6.1e-05 | 11.8 |  |
| ASNENLETM | 238 | 4.9e-05 | 4.1 |  |
| AETPDIKLF [human peptide derived from the RS5 protein, eluted from B44:02 complexes] |  |  |  | copies eluted from B44:02 complexes [4]: around 45,000 copies |
| VYLKTNVFK |  |  |  | presentation, copies per cell [5, 7]: 25 copies per cell; enhancement of presentation by IFNγ [5]: 25 fold increase; presentation, copies per cell ([5]; untreated NIT-1 cells): 1 copies per cell |
| ASNENMETI | 212 | 5.4e-05 | 13.1 |  |
| SSLENFRAYV | 408 | 2.8e-05 | 3.8 | change of surface expression of peptide–H2Db complexes with IFNγ [3]: increased around fourfold; cytoplasmic expression at which surface expression could be detected ([3]; mCherry calibration beads): ~10^6 copies per cell; cytoplasmic expression in transfected cells ([3]; mCherry calibration beads, maximum): up to 10^8 copies per cell; cell surface abundance in the absence of competitor [3, 8]: around 4 × 10^4 complexes; copies expressed at the cell surface in the absence of competition ([3]; mCherry-SSLENFRAYV at around 10^4 MFI units, printed in brackets after non-IFNγ-treated cells): 25 × 10^4 copies; number of pMHC complexes presented on the cell surface ([3]; absence of ASNENMETM competition): up to 80,000 pMHC complexes; number of pMHC complexes presented on the cell surface ([3]; highest level of ASNENMETM competitor): ≤ 10,000 pMHC complexes |
| GGPESFYCASW |  |  |  | half-life [6]: 20 min |
| SYFPEITHI |  |  |  | presentation, copies per cell [5, 7]: ~ 15,000 copies per cell; enhancement of presentation by IFNγ [5]: 7.5 fold increase; presentation, copies per cell ([5]; untreated NIT-1 cells): ~ 2,000 copies per cell |
| ASNENMETA | 52 | 0.00022 | 14.2 | surface expression of ASN variant–H2Db [3]: unable to reach or remain at the cell surface at detectable levels |
| ASNENMETM | 223 | 5.2e-05 | 11.5 | change of surface expression of peptide–H2Db complexes with IFNγ [3]: increased around fourfold; ASNENMETM expression required to inhibit SSLENFRAYV presentation by 50%, with IFNγ compared to non-IFNγ-treated cells [3, 8]: around ten times more |
